From US20170056423A1 (Gilead Sciences, Inc., priority 2012, published 2017)
Like-named read-outs stand apart in the source and are kept apart here.

Legend:
Pgp = target: T1, Pgp (Homo sapiens, UniProt P08183); assay: Pgp inhibition assay, calcein AM accumulation in MDCKII-MDR1 cells; format: cell-based
T1 construct: expressed in transfected cells; host or cells: MDCKII (Madin-Darby canine kidney) cells, MDCKII-MDR1
Description: (§1) Pgp and BCRP inhibition assays in transfected Madin-Darby canine kidney (MDCKII) cells: Inhibition of Pgp-mediated transport was studied using the Pgp substrate calcein AM and MDCKII cells transfected with the human MDR1 (ABCB1) gene (encoding Pgp). Similarly, inhibition of BCRP-mediated transport was studied using the BCRP substrate Hoechst 33342 and MDCKII cells transfected with the human ABCG2 gene (encoding BCRP). Briefly, MDCKII cells were seeded in 96-well black cell culture plates with clear bottoms at a density of 5×10^4 cells/well and grown to confluence overnight. Test compounds were diluted in cell culture medium containing 10 μM Hoechst 33342 and incubated for 3 hours with MDCKII-BCRP and nontransfected cells. Following removal of media containing Hoechst 33342 and test compound, cells were washed twice with warm medium and lysed at room temperature for 5-10 minutes in a buffer containing 20 mM Tris-HCl pH 9.0 and 0.4% Triton X-100. Wells were analyzed for Hoechst 33342 fluorescence at an excitation of 353 nm and an emission of 460 nm. […]

caco-2 cell monolayers = assay: bidirectional permeability of HIV protease inhibitors and GS-7340 through caco-2 monolayers; format: in vitro ADME; conditions: COBI 90 μM, GS-7340 10 μM, over 2 hours
BCRP [1] = target: T2, BCRP (Homo sapiens, UniProt Q9UNQ0); assay: BCRP inhibition assay, Hoechst 33342 accumulation in MDCKII-ABCG2 cells; format: cell-based; conditions: Hoechst 33342, MDCKII-ABCG2 cells
T2 construct: expressed in transfected cells; host or cells: MDCKII (Madin-Darby canine kidney) cells, MDCKII-ABCG2 / MDCKII-BCRP
Description: as §1

[2] = test system: transporters including P-glycoprotein, MRP1, and MRP2; assay: permeability assays for transporter interaction; format: in vitro ADME
BCRP [3] = target: T2, BCRP; assay: BCRP substrate assay, bidirectional permeability in MDCKII-BCRP cells; format: in vitro ADME; conditions: 10 μM, MDCKII-BCRP vs MDCKII-WT, ± Ko134
Description: (§2) Pgp and BCRP substrate assays in transfected MDCKII cells: MDCKII cells were grown to confluence over 4-6 days on 24-well PET transwell plates (BD Biosciences). The same buffers were used in the donor and receiver wells as described above for caco-2 studies. Experiments were conducted as described above for caco-2 transepithelial transport studies and samples analyzed by LC/MS/MS. Similar quality control and acceptance criteria were used as those described above for caco-2 studies. TEER values and the permeability of lucifer yellow, atenolol, and propranolol were determined to meet acceptance criteria for each batch of assay plates. Efflux ratios were determined to be at least 3-fold higher in transfected versus nontransfected monolayers for the model Pgp substrate vinblastine and BCRP substrate prazosin.
(§3) Data analysis: The 50% inhibition constants (IC50) values for transporters in the fluorescent accumulation studies done in MDCKII cells, defined as the test article concentration needed to inhibit the maximal transporter specific transport by 50%, were calculated using nonlinear curve fitting of inhibition versus concentration to a sigmoidal curve with a variable Hill coefficient using GraphPad Prism 5 (GraphPad Software Inc., San Diego, Calif.). […]

CYP2C9 = CYP2C9 (Homo sapiens, UniProt P11712); assay: CYP2C9 inhibition; format: in vitro ADME
[4] = target: uridine glucuronosyltransferase 1A1 (Homo sapiens, UniProt P22309); assay: UGT1A1 inhibition by cobicistat; format: in vitro ADME
[5] = target: T3, Pgp (multidrug resistance protein 1; MDR1) (Homo sapiens, UniProt P08183); assay: Pgp substrate assay, bidirectional permeability in MDCKII-MDR1 cells; format: in vitro ADME; conditions: 10 μM, MDCKII-MDR1 vs MDCKII-WT, ± CSA
T3 construct: expressed in transfected cells; host or cells: MDCKII (Madin-Darby canine kidney) cells, MDCKII-MDR1
Description: as §2, §3

CYP1A2 = CYP1A2 (Homo sapiens, UniProt P05177); assay: CYP1A2 inhibition; format: in vitro ADME
CYP2D6 = CYP2D6 (Homo sapiens, UniProt P10635); assay: CYP2D6 inhibition; format: in vitro ADME
CYP2B6 = CYP2B6 (Homo sapiens, UniProt P20813); assay: CYP2B6 inhibition; format: in vitro ADME; conditions: similar potency to ritonavir
CYP2C19 = CYP2C19 (Homo sapiens, UniProt P33261); assay: CYP2C19 inhibition; format: in vitro ADME
[6] = test system: cytochrome P450, UGT1A1, or P-glycoprotein; assay: xenobiotic receptor transactivation and human hepatocyte induction studies; format: in vitro ADME; conditions: at up to 30 μM
CYP2C8 = CYP2C8 (Homo sapiens, UniProt P10632); assay: CYP2C8 inhibition; format: in vitro ADME
[7] = for thermodynamic stability in solvents: toluene, MTBE, acetone, THF, 2-methyl THF
[8] = Source text: Chemical stability of the hemifumarate form of tenofovir alafenamide was compared with the monofumarate form. […] Conditions evaluated include temperature, relative humidity (RH), and the open or closed state of the container cap.
[9] = in vivo
[10] = test system: UDP-glucuronosyltransferases; assay: UDP-glucuronosyltransferase interaction; format: in vitro ADME, human; conditions: in vitro or in vivo in humans
cytochrome P450 enzymes = conditions: in vitro or in vivo in humans
[11] = 25° C., relative humidity of 90%
Description: DVS analysis was conducted using 4.951 mg of tenofovir alafenamide hemifumarate. The material was kept at 25° C. in nitrogen at humidities ranging from 10% to 90% relative humidity: each step was equilibrated for 120 minutes.

[12] = 40° C./75% RH Cap Closed, 0 weeks
[13] = 40° C./75% RH Cap Closed, 1 week
[14] = 40° C./75% RH Cap Closed, 2 weeks
[15] = 40° C./75% RH Cap Closed, 4 weeks
[16] = 40° C./75% RH Cap Closed, 8 weeks
[17] = 40° C./75% RH Cap Open, 0 weeks
[18] = 40° C./75% RH Cap Open, 2 weeks
[19] = 40° C./75% RH Cap Open, 4 weeks
[20] = 40° C./75% RH Cap Open, 8 weeks

T2 sequence (Q9UNQ0 whole entry): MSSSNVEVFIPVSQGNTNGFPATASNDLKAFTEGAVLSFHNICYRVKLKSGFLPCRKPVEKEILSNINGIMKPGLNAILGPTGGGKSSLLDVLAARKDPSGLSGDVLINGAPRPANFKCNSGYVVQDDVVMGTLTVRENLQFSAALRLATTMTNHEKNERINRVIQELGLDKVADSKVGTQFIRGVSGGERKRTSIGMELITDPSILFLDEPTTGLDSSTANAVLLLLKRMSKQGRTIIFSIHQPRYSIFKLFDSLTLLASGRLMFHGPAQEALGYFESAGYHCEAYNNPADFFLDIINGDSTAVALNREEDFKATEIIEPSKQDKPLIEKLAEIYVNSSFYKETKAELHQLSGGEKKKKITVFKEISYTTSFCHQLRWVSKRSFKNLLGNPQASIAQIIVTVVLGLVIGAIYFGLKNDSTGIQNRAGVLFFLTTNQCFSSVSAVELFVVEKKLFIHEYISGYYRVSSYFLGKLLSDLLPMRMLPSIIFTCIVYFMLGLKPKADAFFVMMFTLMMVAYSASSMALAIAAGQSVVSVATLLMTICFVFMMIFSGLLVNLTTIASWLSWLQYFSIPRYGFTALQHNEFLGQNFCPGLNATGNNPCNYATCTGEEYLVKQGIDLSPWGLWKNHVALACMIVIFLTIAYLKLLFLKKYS
Sequence of CYP2C19 (P33261 whole entry): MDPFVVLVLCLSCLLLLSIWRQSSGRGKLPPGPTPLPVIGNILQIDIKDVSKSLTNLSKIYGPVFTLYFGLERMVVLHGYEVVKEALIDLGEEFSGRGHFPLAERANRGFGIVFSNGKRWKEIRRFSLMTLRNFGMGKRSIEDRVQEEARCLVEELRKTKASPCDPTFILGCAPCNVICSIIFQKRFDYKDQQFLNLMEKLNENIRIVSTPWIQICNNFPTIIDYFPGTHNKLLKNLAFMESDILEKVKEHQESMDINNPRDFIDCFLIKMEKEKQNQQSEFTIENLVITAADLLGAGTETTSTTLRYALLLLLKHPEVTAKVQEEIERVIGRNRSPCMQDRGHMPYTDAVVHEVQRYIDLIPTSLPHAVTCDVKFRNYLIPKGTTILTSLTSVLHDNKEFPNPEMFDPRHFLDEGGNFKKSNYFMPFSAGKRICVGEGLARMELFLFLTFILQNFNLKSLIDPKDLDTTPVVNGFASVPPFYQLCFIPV
Sequence of CYP2D6 (P10635 whole entry): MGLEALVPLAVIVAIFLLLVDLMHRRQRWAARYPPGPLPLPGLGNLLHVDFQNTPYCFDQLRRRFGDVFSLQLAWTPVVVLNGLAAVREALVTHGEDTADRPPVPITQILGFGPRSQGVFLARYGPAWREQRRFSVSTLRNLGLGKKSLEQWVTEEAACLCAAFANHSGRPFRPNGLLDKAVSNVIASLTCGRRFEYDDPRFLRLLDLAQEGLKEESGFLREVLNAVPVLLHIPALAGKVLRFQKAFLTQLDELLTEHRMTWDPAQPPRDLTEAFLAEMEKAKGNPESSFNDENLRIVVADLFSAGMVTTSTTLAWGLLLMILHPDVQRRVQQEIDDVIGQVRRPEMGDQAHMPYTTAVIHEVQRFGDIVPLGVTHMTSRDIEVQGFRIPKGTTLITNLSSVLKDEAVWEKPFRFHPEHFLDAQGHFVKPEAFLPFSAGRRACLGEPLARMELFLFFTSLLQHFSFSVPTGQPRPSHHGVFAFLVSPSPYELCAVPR
Sequence of CYP2B6 (P20813 whole entry): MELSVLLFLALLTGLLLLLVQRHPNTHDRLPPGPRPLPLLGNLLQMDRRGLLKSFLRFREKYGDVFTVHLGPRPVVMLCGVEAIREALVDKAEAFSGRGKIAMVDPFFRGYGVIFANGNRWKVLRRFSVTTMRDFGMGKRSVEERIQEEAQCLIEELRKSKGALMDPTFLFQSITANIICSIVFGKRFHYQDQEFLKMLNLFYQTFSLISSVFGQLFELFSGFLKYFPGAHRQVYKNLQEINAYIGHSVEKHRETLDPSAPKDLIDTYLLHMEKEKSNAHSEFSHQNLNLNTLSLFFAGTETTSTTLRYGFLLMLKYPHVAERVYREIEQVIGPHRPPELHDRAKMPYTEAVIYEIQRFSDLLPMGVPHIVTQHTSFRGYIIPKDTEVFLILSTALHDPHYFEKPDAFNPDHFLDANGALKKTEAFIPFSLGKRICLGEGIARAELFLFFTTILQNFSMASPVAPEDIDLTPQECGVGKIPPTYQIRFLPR
Sequence of CYP2C8 (P10632 whole entry): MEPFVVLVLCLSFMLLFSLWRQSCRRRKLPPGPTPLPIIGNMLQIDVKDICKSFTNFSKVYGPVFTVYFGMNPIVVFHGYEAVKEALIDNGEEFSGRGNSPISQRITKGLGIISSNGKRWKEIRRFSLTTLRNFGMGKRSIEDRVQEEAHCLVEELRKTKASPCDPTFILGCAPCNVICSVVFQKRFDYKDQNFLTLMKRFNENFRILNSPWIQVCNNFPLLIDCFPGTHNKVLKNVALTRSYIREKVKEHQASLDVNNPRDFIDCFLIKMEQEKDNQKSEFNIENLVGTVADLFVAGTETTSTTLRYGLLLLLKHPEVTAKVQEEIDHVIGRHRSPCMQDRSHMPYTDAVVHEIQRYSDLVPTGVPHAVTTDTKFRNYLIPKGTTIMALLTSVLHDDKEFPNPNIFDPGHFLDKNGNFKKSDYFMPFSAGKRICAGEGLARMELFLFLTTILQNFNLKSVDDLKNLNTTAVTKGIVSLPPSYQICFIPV
Sequence of CYP2C9 (P11712 whole entry): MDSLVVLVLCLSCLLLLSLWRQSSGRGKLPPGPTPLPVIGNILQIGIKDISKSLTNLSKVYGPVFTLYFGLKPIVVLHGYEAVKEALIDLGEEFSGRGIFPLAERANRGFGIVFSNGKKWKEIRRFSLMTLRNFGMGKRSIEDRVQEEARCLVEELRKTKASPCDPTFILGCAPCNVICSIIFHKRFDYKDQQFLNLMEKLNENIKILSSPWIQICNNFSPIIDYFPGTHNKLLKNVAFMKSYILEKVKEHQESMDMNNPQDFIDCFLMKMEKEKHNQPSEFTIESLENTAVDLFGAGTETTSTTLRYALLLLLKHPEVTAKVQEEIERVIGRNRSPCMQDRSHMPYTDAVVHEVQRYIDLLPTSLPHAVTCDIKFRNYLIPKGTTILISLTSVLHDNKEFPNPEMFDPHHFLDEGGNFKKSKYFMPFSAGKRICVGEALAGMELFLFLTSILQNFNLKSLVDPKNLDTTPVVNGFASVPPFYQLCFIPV
Sequence of CYP1A2 (P05177 whole entry): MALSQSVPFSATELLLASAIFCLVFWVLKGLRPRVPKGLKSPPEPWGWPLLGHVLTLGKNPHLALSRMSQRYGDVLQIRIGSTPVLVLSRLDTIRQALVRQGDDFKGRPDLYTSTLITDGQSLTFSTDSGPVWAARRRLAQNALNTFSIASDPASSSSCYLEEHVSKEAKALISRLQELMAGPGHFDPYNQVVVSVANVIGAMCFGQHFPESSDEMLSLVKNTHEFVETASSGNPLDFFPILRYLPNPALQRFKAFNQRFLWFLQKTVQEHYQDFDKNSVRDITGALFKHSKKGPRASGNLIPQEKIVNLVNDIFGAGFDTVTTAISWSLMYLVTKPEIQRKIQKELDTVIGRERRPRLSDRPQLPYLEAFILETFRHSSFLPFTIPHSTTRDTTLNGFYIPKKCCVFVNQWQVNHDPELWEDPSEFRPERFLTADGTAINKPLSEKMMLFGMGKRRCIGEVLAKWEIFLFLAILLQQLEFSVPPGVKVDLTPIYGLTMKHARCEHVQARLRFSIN
Sequence of uridine glucuronosyltransferase 1A1 (P22309 26-533): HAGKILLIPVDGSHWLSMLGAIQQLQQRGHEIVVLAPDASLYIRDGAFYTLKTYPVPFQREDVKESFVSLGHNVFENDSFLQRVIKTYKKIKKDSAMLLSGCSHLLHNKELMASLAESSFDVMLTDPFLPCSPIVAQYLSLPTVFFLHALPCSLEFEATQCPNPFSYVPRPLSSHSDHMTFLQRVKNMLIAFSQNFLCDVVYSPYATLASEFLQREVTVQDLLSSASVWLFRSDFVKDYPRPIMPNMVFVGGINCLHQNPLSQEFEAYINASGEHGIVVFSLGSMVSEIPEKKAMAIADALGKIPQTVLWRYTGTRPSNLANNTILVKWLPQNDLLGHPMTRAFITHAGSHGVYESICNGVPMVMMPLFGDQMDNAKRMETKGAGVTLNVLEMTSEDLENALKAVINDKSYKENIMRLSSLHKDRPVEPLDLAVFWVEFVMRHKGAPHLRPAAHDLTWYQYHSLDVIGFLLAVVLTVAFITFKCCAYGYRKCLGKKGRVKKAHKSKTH

Compound	thermodynamic stability in solvents ([7]; ACN, ethyl acetate)	% TA Area Normalized [8, 12]	% Total Deg. Products [8, 12]	% TA Area Normalized [8, 13]	% Total Deg. Products [8, 13]	% TA Area Normalized [8, 14]	% Total Deg. Products [8, 14]	% TA Area Normalized [8, 15]	% Total Deg. Products [8, 15]	% TA Area Normalized [8, 16]	% Total Deg. Products [8, 16]	% TA Area Normalized [8, 17]	% Total Deg. Products [8, 17]	% TA Area Normalized ([8]; 40° C./75% RH Cap Open, 1 week)	% Total Deg. Products ([8]; 40° C./75% RH Cap Open, 1 week)	% TA Area Normalized [8, 18]	% Total Deg. Products [8, 18]	% TA Area Normalized [8, 19]	% Total Deg. Products [8, 19]	% TA Area Normalized [8, 20]	further results
CC(C)c1nc(CN(C)C(=O)N[C@@H](CCN2CCOCC2)C(=O)N[C@H](CC[C@H](Cc2ccccc2)NC(=O)OCc2cncs2)Cc2ccccc2)cs1 [cobicistat, 1,3-thiazol-5-ylmethyl (2R,5R)-(5-{[(2S)-2-[(methyl{[2-(propan-2-yl)-1,3-thiazol-4-yl]methyl}carbamoyl)amino]]-4-(morpholin-4-yl)butanamido}-1,6-diphenylhexan-2-yl)carbamate]	–	–	–	–	–	–	–	–	–	–	–	–	–	–	–	–	–	–	–	–	IC50 (Pgp): 36 ± 10 µM; effect on A-B flux of GS-7340 (caco-2 cell monolayers): increased the A-B flux; effect on B-A flux of GS-7340 (caco-2 cell monolayers): reducing B-A flux; IC50 (BCRP [1]): 59 ± 28 µM; substrate or inhibitor of transporters [2]: not a strong substrate or inhibitor; substrate for BCRP (BCRP [3]): substrate; inhibition of CYP2C9 (CYP2C9): does not appreciably inhibit; inhibition of uridine glucuronosyltransferase 1A1 [4]: does not appreciably inhibit; substrate for Pgp [5]: substrate; inhibition of CYP1A2 (CYP1A2): does not appreciably inhibit; inhibition of CYP2D6 (CYP2D6): weak inhibitor; inhibition of CYP2B6 (CYP2B6): moderate inhibitor; inhibition of CYP2C19 (CYP2C19): does not appreciably inhibit; potential as inducer of cytochrome P450, UGT1A1, or P-glycoprotein [6]: no/weak potential as an inducer; inhibition of CYP2C8 (CYP2C8): does not appreciably inhibit
tenofovir alafenamide monofumarate [Monofumarate form]	not thermodynamically stable	97.1%	0.69%	97.0%	0.87%	96.6%	1.18%	96.4%	1.49%	95.4%	2.36%	97.1%	0.69%	96.9%	0.90%	96.6%	1.10%	96.2%	1.67%	95.0%	form conversion when suspended in solvent ([7]; ACN, ethyl acetate, MTBE, and acetone): partially converts to the hemifumarate form; form conversion when suspended in solvent ([7]; THF and 2-methyl THF): fully converts to the hemifumarate form; % Total Deg. Products [8, 20]: 2.74%; % TA Area Normalized ([8]; 70° C. Cap Closed, 0 weeks): 97.1%; % Total Deg. Products ([8]; 70° C. Cap Closed, 0 weeks): 0.69%; % TA Area Normalized ([8]; 70° C. Cap Closed, 2 weeks): 96.2%; % Total Deg. Products ([8]; 70° C. Cap Closed, 2 weeks): 1.83%; % TA Area Normalized ([8]; 70° C. Cap Closed, 4 weeks): 93.3%; % Total Deg. Products ([8]; 70° C. Cap Closed, 4 weeks): 4.78%
C[C@H](Cn1cnc2c(N)ncnc21)OCP(=O)(O)O [tenofovir, 9-R-[(2-phosphonomethoxy)propyl]adenine]	–	–	–	–	–	–	–	–	–	–	–	–	–	–	–	–	–	–	–	–	systemic exposure equivalent, fold higher than a dose of tenofovir alone [9]: 3 to 4 fold; interaction with UDP-glucuronosyltransferases as substrate, inhibitor, or inducer [10]: does not interact significantly; interaction with human cytochrome P450 enzymes as substrate, inhibitor, or inducer (cytochrome P450 enzymes): does not interact significantly
tenofovir alafenamide hemifumarate	thermodynamically stable in most solvents	98.4%	0.05%	98.4%	0.14%	98.5%	0.14%	98.4%	0.25%	98.0%	0.49%	98.4%	0.05%	98.5%	0.15%	98.5%	0.14%	98.4%	0.26%	98.1%	water absorbed [11]: 0.65%; % Total Deg. Products [8, 20]: 0.50%; % TA Area Normalized ([8]; 70° C. Cap Closed, 0 weeks): 98.4%; % Total Deg. Products ([8]; 70° C. Cap Closed, 0 weeks): 0.05%; % TA Area Normalized ([8]; 70° C. Cap Closed, 2 weeks): 98.5%; % Total Deg. Products ([8]; 70° C. Cap Closed, 2 weeks): 0.22%; % TA Area Normalized ([8]; 70° C. Cap Closed, 4 weeks): 98.4%; % Total Deg. Products ([8]; 70° C. Cap Closed, 4 weeks): 0.33%
